Data taken from article PMC11040352, “CD38‐Specific Gallium‐68 Labeled Peptide Radiotracer Enables Pharmacodynamic Monitoring in Multiple Myeloma with PET” (Advanced Science, 2024).
Values joined by “and” are separate entries in the source; they are usually repeats but may differ in a detail not shown here. Equal entries are not always repeated. Where two headings read alike, the source gives them in different places.

Experiments:
[1] = Octanol/PBS partition coefficient (LogD, pH 7.4); type: physicochemical
Experimental: Partition coefficients, logD (pH7.4) value, were determined according to a literature procedure.^[ [46] ^] Briefly, a 10 µL solution of [^68Ga]Ga‐AJ206 (around 10 µCi) was added to a solution of 1‐octanol (200 µL) mixed with phosphate buffered saline (PBS) (190 µL) in a 1.5 mL centrifuge tube. After the mixture was vigorously shaken and vortexed, it was centrifuged at 3000 rpm for 5 min. Aliquots (10 µL) were removed from the two phases, and the radioactivity was measured on an automated gamma counter (1282 Compugamma CS, Pharmacia/LKB Nuclear, Inc., Gaithersburg, MD). The logD was calculated as the average log ratio value of the radioactivity in the 1‐octanol fraction and the PBS fraction from the four samples.

[2] = Ex vivo biodistribution in mice with MOLP8 tumor xenografts; parameters: species or system NSG mice; details: both sexes, NSG, mouse, 80 uCi, total radioactivity, MOLP8 xenograft mice; for tissue to tissue ratio at 5 min: 5 min p.i.; for tissue to tissue ratio at 0.5 h: 30 min p.i.; for tissue to tissue ratio at 1 h: 60 min p.i.; for tissue to tissue ratio at 2 h: 120 min p.i.
Experimental: (§1) Animal studies were performed under Johns Hopkins University Animal Care and Use Committee (ACUC‐approved protocol (Principal investigator: Sridhar Nimmagadda, Ph.D. and Protocol number M021M175). Male and female NSG mice (5‐6 weeks old) were used to establish xenografts by administering 3 million cells (50% Corning Matrigel) subcutaneously to form various tumor models within 3–4 weeks. Imaging or biodistribution studies (n = 3–5) were conducted on mice with tumor volumes of 100–200 mm^3. Disseminated tumor models were developed by injecting 4–5 million cells in saline intravenously for MOLP8 and MM1S‐Luc models (n = 4–5). Luciferase expressing MM1S cell line (MM1S‐Luc) was used to monitor cancer cell dissemination in the body. Tumor establishment was confirmed by injecting D‐Luciferin intraperitoneally (150 mg kg^−1) and imaged mice after 10 min in IVIS bioluminescence imaging system. Bone marrow tumors were ready for imaging after 25–30 d of implantation.
(§2) Mice with 100–200 mm^3 tumor volume were used for ex vivo biodistribution studies. For radiotracer pharmacokinetics studies, mice with MOLP8 tumor xenografts received ≈80 µCi (2.96 MBq) [^68Ga]Ga‐AJ206 and were sacrificed at pre‐determined time points (5, 30, 60 and 120 min). Similarly, for dosimetry study, mice with MM1S tumor xenografts received ≈80 µCi (2.96 MBq) of [^68Ga]Ga‐AJ206 and were sacrificed at pre‐determined time points (5, 30, 60, 90 and 120 min). All other mice were injected with ≈50µCi (1.85 MBq) [^68Ga]Ga‐AJ206 and were sacrificed at 60 min. The selected tissues were collected, weighed, counted, and their %ID g^−1 values calculated for biodistribution analysis. The tissues included blood, muscle, tumor, thymus, heart, lung, liver, pancreas, stomach, small intestine, large intestine, spleen, adrenals, kidney, bladder, femur, and brain.

MOLP8 tumor xenografts = experiment: as above; parameters: species or system NSG mice; details: MOLP8 xenograft mice
Experimental: as §1, §2

[3] = tumor/blood, read-out: Tumor/blood ratio
[4] = tumor/muscle, read-out: Tumor/muscle ratio
[5] = 60 min p.i., listed as [68Ga]Ga-AJ206

## CC[C@H](C)[C@@H]1NC(=O)[C@@H]2CCCN2C(=O)[C@H](Cc2ccccc2)NC(=O)[C@H](CC(=O)O)NC(=O)[C@H](C)NC(=O)[C@@H]2CSCc3cc(cc(c3)CSC[C@H](NC(=O)[C@H](C)NC(=O)CCOCCOCCOCCNC(=O)CN3CCN(CC(=O)O)CCN(CC(=O)O)CC3)C(=O)N[C@@H](C(C)C)C(=O)N3CCC[C@H]3C(=O)N2)CSC[C@@H](C(N)=O)NC(=O)[C@H](Cc2ccc(O)cc2)NC(=O)[C@H](Cc2c[nH]c3ccccc23)NC1=O [[^68Ga]Ga‐AJ206, metal not drawn]
[1]
  logD: -1.32 ± 0.08
[2]; [3]
  tissue to tissue ratio at 5 min: 0.32 ± 0.04
  tissue to tissue ratio at 0.5 h: 1.43 ± 0.46
  tissue to tissue ratio at 1 h: > 7
  tissue to tissue ratio at 2 h: 19.7 ± 6.57
[2]; [4]
  tissue to tissue ratio at 5 min: 2.94 ± 0.47
  tissue to tissue ratio at 0.5 h: 7.28 ± 1.89
  tissue to tissue ratio at 1 h: > 25
  tissue to tissue ratio at 2 h: 27.4 ± 18.6
MOLP8 tumor xenografts; 5 min p.i.
  uptake in blood: 8.25 ± 0.50 %ID g^−1
  uptake in femur: 1.42 ± 0.09 %ID g^−1
  uptake in heart: 3.13 ± 0.27 %ID g^−1
  uptake in kidney: 11.17 ± 0.65 %ID g^−1
  uptake in liver: 21.24 ± 1.31 %ID g^−1
  uptake in lungs: 6.16 ± 0.16 %ID g^−1
  uptake in muscle: 0.92 ± 0.11 %ID g^−1
  uptake in small intestine: 1.95 ± 0.08 %ID g^−1
  uptake in spleen: 2.28 ± 0.50 %ID g^−1
  uptake in stomach: 1.08 ± 0.07 %ID g^−1
  uptake in tumor: 2.58 ± 0.18 %ID g^−1
MOLP8 tumor xenografts; 30 min p.i.
  uptake in blood: 2.07 ± 0.30 %ID g^−1
  uptake in femur: 0.65 ± 0.08 %ID g^−1
  uptake in heart: 0.83 ± 0.18 %ID g^−1
  uptake in kidney: 17.09 ± 1.77 %ID g^−1
  uptake in liver: 6.39 ± 3.71 %ID g^−1
  uptake in lungs: 1.86 ± 0.29 %ID g^−1
  uptake in muscle: 0.37 ± 0.05 %ID g^−1
  uptake in small intestine: 0.59 ± 0.14 %ID g^−1
  uptake in spleen: 0.75 ± 0.14 %ID g^−1
  uptake in stomach: 0.51 ± 0.06 %ID g^−1
  uptake in tumor: 2.91 ± 0.84 %ID g^−1
MOLP8 tumor xenografts; 60 min p.i.
  Tumor/blood ratio: 7.20 ± 0.89
  Tumor/muscle ratio: 27.12 ± 2.73
  uptake in blood: 0.56 ± 0.09 %ID g^−1
  uptake in femur: 0.28 ± 0.07 %ID g^−1
  uptake in heart: 0.29 ± 0.03 %ID g^−1
  uptake in kidney: 16 %ID g^−1 and 16.65 ± 2.52 %ID g^−1
  uptake in liver: 1.22 ± 0.09 %ID g^−1
  uptake in lungs: 0.71 ± 0.10 %ID g^−1
  uptake in muscle: 0.14 ± 0.02 %ID g^−1
  uptake in small intestine: 0.65 ± 0.09 %ID g^−1
  uptake in spleen: 0.39 ± 0.03 %ID g^−1
  uptake in stomach: 0.25 ± 0.06 %ID g^−1
  uptake in tumor: 3.76 ± 0.25 %ID g^−1
MOLP8 tumor xenografts; [5]
  uptake in blood: 0.56±0.09 %ID g^−1
  uptake in femur: 0.28±0.07 %ID g^−1
